Experimental data as given in BindingDB's records for doi:10.1016/s0196-9781(99)00098-4 (Uppsala University, 1999).

Columns and labels:
[1] = molecular target: T1, Neuropeptide Y receptor type 1 (Cavia porcellus, UniProt Q9WVD0)
T1 sequence (Q9WVD0 whole entry): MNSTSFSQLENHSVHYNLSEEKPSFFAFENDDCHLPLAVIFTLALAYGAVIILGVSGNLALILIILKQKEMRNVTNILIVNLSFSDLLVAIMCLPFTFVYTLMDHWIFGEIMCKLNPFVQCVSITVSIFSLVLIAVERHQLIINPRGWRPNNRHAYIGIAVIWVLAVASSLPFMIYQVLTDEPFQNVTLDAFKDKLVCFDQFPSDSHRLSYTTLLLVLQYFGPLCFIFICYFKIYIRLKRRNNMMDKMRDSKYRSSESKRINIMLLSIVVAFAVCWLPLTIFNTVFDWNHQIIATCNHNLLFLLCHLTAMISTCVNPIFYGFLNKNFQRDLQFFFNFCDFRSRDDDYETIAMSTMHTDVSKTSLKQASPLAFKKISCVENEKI

[2] = molecular target: T2, Neuropeptide Y receptor type 1 (Rattus norvegicus, UniProt P21555)
T2 sequence (P21555 whole entry): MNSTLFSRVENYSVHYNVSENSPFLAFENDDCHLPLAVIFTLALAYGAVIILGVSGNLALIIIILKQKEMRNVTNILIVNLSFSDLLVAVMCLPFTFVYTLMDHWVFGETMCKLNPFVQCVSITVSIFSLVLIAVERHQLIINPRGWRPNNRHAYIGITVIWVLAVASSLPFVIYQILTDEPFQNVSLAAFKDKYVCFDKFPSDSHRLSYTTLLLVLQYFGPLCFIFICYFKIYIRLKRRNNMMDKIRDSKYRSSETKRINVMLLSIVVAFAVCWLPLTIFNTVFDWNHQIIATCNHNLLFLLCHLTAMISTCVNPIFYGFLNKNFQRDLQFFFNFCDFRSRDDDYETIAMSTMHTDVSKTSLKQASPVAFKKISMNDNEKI

Ki [1]	Ki [2]	Compound
0.8 nM	1.3 nM	CN(C)CC1CCC(CN=C(N)c2ccc(CC(NC(=O)C(Cc3ccccc3)NS(=O)(=O)c3ccc4ccccc4c3)C(=O)N3CCCC3)cc2)CC1 (stereo not given) [CAS_5312150]
4.9 nM		N=C(N)NCCCC(NC(=O)C(c1ccccc1)c1ccccc1)C(=O)NCc1ccc(O)cc1 (stereo not given) [NSC_5311023]
2.4 nM	1.4 nM	H-INPIYRLRY-NH2 [NPY 28-36, [P30, Y32, L34]]
